Test: xn = mol fraction of the nth substance listed

CC1CCCCC1=O (stereo unspecified) + CN(C)C=O
viscosity [mPa·s], 100 kPa
Conditions | x1 = 0.0825 | x1 = 0.1712 | x1 = 0.2787 | x1 = 0.3863 | x1 = 0.4889 | x1 = 0.5801 | x1 = 0.6819 | x1 = 0.7805 | x1 = 0.8801
303.15 K | 0.889 | 1.027 | 1.192 | 1.353 | 1.505 | 1.638 | 1.783 | 1.921 | 2.06
308.15 K | 0.85 | 0.987 | 1.15 | 1.309 | 1.459 | 1.59 | 1.735 | 1.872 | 2.009
313.15 K | 0.81 | 0.948 | 1.108 | 1.266 | 1.413 | 1.543 | 1.688 | 1.824 | 1.959

CCCCCCCCCO + CN(C)C=O
Conditions | viscosity [mPa·s]
308.15 K, 101.3 kPa, x2 = 0.2201 | 2.965

CC1CCCCC1=O (stereo unspecified) + CN(C)c1ccccc1
viscosity [mPa·s], 101 kPa
Conditions | 303.15 K | 308.15 K
x2 = 0.0798 | 2.088 | 2.021
x2 = 0.1302 | 2.007 | 1.934
x2 = 0.2014 | 1.899 | 1.82
x2 = 0.2705 | 1.801 | 1.718
x2 = 0.3456 | 1.704 | 1.618
x2 = 0.4121 | 1.625 | 1.536
x2 = 0.4952 | 1.536 | 1.446
x2 = 0.5625 | 1.471 | 1.379
x2 = 0.6325 | 1.41 | 1.318
x2 = 0.7025 | 1.355 | 1.264
x2 = 0.7652 | 1.31 | 1.221
x2 = 0.8312 | 1.268 | 1.183
x2 = 0.9025 | 1.226 | 1.148

CC1CCCCC1=O (stereo unspecified) + CNC=O
viscosity [mPa·s], 100 kPa
Conditions | x1 = 0.0925 | x1 = 0.1835 | x1 = 0.2805 | x1 = 0.3919 | x1 = 0.4985 | x1 = 0.5995 | x1 = 0.6901 | x1 = 0.7921 | x1 = 0.8995
303.15 K | 1.655 | 1.722 | 1.79 | 1.865 | 1.934 | 1.997 | 2.052 | 2.111 | 2.171
308.15 K | 1.541 | 1.614 | 1.689 | 1.771 | 1.847 | 1.917 | 1.978 | 2.045 | 2.111
313.15 K | 1.439 | 1.518 | 1.597 | 1.684 | 1.766 | 1.842 | 1.909 | 1.982 | 2.053

CC(=O)N(C)C + CO
viscosity [mPa·s], 101 kPa
Conditions | 303.15 K | 308.15 K | 313.15 K | 318.15 K
x1 = 0.0976 | 0.572 | – | – | –
x1 = 0.1993 | 0.626 | – | – | –
x1 = 0.2967 | 0.673 | – | – | –
x1 = 0.3971 | 0.712 | – | – | –
x1 = 0.4998 | 0.75 | – | – | –
x1 = 0.5962 | 0.78 | – | – | –
x1 = 0.648 | 0.795 | – | – | –
x1 = 0.7762 | 0.829 | – | – | –
x1 = 0.8699 | 0.846 | – | – | –
x2 = 0.125 | 0.872 | 0.795 | 0.737 | 0.693
x2 = 0.232 | 0.856 | 0.784 | 0.725 | 0.675
x2 = 0.324 | 0.832 | 0.763 | 0.709 | 0.655
x2 = 0.405 | 0.797 | 0.733 | 0.682 | 0.625
x2 = 0.644 | 0.697 | 0.647 | 0.598 | 0.539
x2 = 0.915 | 0.567 | 0.531 | 0.492 | 0.431
x2 = 0.939 | 0.544 | 0.507 | 0.471 | 0.413
x2 = 0.961 | 0.529 | 0.494 | 0.458 | 0.398

CCCCCCCCCO + CO
viscosity [mPa·s], 101 kPa
Conditions | 298.15 K | 308.15 K | 318.15 K
x2 = 0.05 | 8.515 | 6.146 | 4.44
x2 = 0.1 | 7.93 | 5.765 | 4.2
x2 = 0.15 | 7.356 | 5.387 | 3.958
x2 = 0.2 | 6.793 | 5.013 | 3.716
x2 = 0.25 | 6.245 | 4.644 | 3.474
x2 = 0.3 | 5.711 | 4.281 | 3.233
x2 = 0.35 | 5.193 | 3.925 | 2.994
x2 = 0.4 | 4.694 | 3.579 | 2.756
x2 = 0.45 | 4.214 | 3.242 | 2.521
x2 = 0.5 | 3.754 | 2.916 | 2.29
x2 = 0.55 | 3.317 | 2.603 | 2.063
x2 = 0.6 | 2.902 | 2.302 | 1.841
x2 = 0.65 | 2.511 | 2.016 | 1.625
x2 = 0.7 | 2.146 | 1.744 | 1.417
x2 = 0.75 | 1.807 | 1.488 | 1.215
x2 = 0.8 | 1.496 | 1.248 | 1.023
x2 = 0.85 | 1.212 | 1.025 | 0.8404
x2 = 0.9 | 0.9583 | 0.8198 | 0.6684
x2 = 0.95 | 0.7342 | 0.6326 | 0.508

CC(=O)N(C)C + COC(=O)OC
298.15 K, 101 kPa
Conditions | viscosity [mPa·s]
x2 = 0.0376 | 0.937
x2 = 0.0836 | 0.914
x2 = 0.1443 | 0.887
x2 = 0.2234 | 0.854
x2 = 0.3348 | 0.807
x2 = 0.4705 | 0.757
x2 = 0.5544 | 0.726
x2 = 0.6212 | 0.702
x2 = 0.6902 | 0.679
x2 = 0.7541 | 0.659
x2 = 0.8244 | 0.636
x2 = 0.9102 | 0.608

From the CheMixHub viscosity set
